Measurements taken from US20080226579A1, “Novel Resinate Complex of S-Clopidogrel and Production Method Thereof” (Chong Kun Dang Pharmaceutical Corp., priority 2005, published 2008).

Test: Heat stability test (stress storage at 80° C., clopidogrel content by HPLC)
Assay type: physicochemical
Conditions: tightly closed container at 80° C., day 3, content of clopidogrel by HPLC
Experimental: Each of the (+)-clopidogrel isomer-resinate complex, so obtained from Examples 1, 2 and 8, including a solid form of (+)-clopidogrel optical isomer-Amberlite complex and (+)-clopidogrel isomer (free base), so obtained from Comparative examples 1 and 2, were put into a tightly closed container at 80° C. to determine the contents of clopidogrel in the baseline, day 1 and day 3 by HPLC analysis in accordance with a content uniformity test of the U.S. Pharmacopoeia.
(HPLC Analysis) • Column: ULTRON ES-OVM chiral 5 ? , 4.6×250 mm • Mobile phase: 0.01 M potassium dihydrogen phosphate solution/acetonitrile 75:25 • Flow rate: 1 mL/min • Column temperature: Room temperature • Detector: Ultraviolet absorption spectrophotometer (detection wavelength: 220 nm) • Injection volume: 10 ?

decrease in content at day 3: 70%
Structure (SMILES): COC(=O)[C@H](c1ccccc1Cl)N1CCc2sccc2C1 [(+)-clopidogrel isomer (free base), methyl(+)-(S)-(2-chlorophenyl)(6,7-dihydro-4H-thieno[3,2-c]pyridine-5-yl)acetate]
